How the values were obtained:
[1] = Brain positron emission tomography (PET) imaging study, dynamic PET; assay type: in vivo; conditions: rhesus monkey PET; for order of brain tracer penetration: three 18F-cromolyn analogs compared
Description: Dynamic PET imaging (GE Discovery MI Scanner) in a rhesus monkey was performed with compound 5 (diethyl ester), compound 6 (di-tert-butyl ester), and ^18F-Cromolyn (diacid).

[2] = Measured log D (lipophilicity); assay type: physicochemical

| time of maximum brain uptake [1] | washout from brain [1] | maximum brain uptake ([1]; at 2 min) | brain uptake during washout ([1]; at 20 min) | brain uptake during washout ([1]; at 60 min) | order of brain tracer penetration [1] | logD [2] | SMILES | regional brain uptake [1] |
| --- | --- | --- | --- | --- | --- | --- | --- | --- |
| 2 min | washout was slow | 2.3 SUV | 2 SUV | 1.5 SUV | diethyl ester>di-tert-butyl ester>diacid | 2.5 | CCOC(=O)c1cc(=O)c2c(OCC([18F])COc3cccc4oc(C(=O)OCC)cc(=O)c34)cccc2o1 [Compound 5] | uptake in all regions of the brain with the highest in putamen, grey matter and cerebellum followed by caudate, thalamus and white matter |
| – | – | – | – | – | diethyl ester>di-tert-butyl ester>diacid | 3.5 | CC(C)(C)OC(=O)c1cc(=O)c2c(OCC([18F])COc3cccc4oc(C(=O)OC(C)(C)C)cc(=O)c34)cccc2o1 [Compound 6] | – |
| – | – | – | – | – | diethyl ester>di-tert-butyl ester>diacid | – | O=C(O)c1cc(=O)c2c(OCC([18F])COc3cccc4oc(C(=O)O)cc(=O)c34)cccc2o1 [^18F-Cromolyn (diacid), reference compound] | – |

Reference: patent US12383528B2, “Cromolyn esters and uses thereof” (The General Hospital Corporation, priority 2018, dated 2025)
